“And” between values parts separate entries of the source, which are not always exact repeats. Equal entries are not always repeated.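 Each compound was tested at five concentrations against cells in 96-well plates for 48 hours. GI50 marks 50% less growth. TGI marks complete inhibition of growth.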
Columns and labels:
Assay in all cases: NCI anticancer screen, dose series, 48 h
[1] = test system: M14 melanoma
[2] = test system: K-562 leukemia
[3] = test system: CCRF-CEM leukemia
[4] = test system: UACC-62 melanoma
[5] = test system: OVCAR-4 ovarian
[6] = test system: A549 NSCLC
[7] = test system: HT29 colon
[8] = test system: SK-MEL-5 melanoma
[9] = test system: SF-295 CNS
[10] = test system: BT-549 breast

SMILES	TGI [1]	TGI [2]	TGI [3]	TGI [4] [µM]	TGI [5]	TGI [6]	TGI [7]	TGI [8] [µM]	TGI [9]	GI50 [1] [nM]	GI50 [8] [nM]	GI50 [3] [nM]	GI50 [9] [nM]	GI50 [10]	TGI [10]	GI50 [4] [nM]	GI50 [5] [nM]	GI50 [6] [nM]	GI50 [2] [nM]	GI50 [7] [nM]
CC1(C)NC(=O)N(CCCCCCN2C(=O)NC(C)(C)C2=O)C1=O	> 100 µM	> 100 µM	> 100 µM	> 100	> 100 µM	> 100 µM	> 100 µM													
OCC1OC2c3ccccc3COC2C1OCc1ccccc1 (stereo not given)	> 100 µM	> 100 µM		> 100	> 100 µM	> 100 µM	> 100 µM	> 100	> 100 µM											
O=C(Cc1ccccc1[N+](=O)[O-])C(CO)c1ccccc1[N+](=O)[O-] (stereo not given)	> 100 µM	> 100 µM	> 100 µM	> 100	> 100 µM	> 100 µM	> 100 µM	> 100	> 100 µM											
N#CCCN(CCC#N)c1ccc(/C=C(/NC(=O)c2cc([N+](=O)[O-])ccc2Cl)C(=O)NN)cc1	> 100 µM	> 100 µM	> 100 µM	> 100	> 100 µM	> 100 µM	> 100 µM	> 100	> 100 µM											
CC(=O)c1ccccc1NC(=O)C(=O)C(C(=O)c1ccc2ccccc2c1)C1OC(=O)c2ccccc21 (stereo not given)	36.6 µM	70.3 µM	40 µM	28.1	57 µM	70.5 µM	92.4 µM	24.4												
COC1=CC(c2ccc[nH]2)=N/C1=C\c1[nH]c(C)c(C(=O)CCC(=O)Oc2ccc3c(c2)CCC2C3CC[C@]3(C)[C@@H](O)CC[C@@H]23)c1C (stereo not given in full)	4.6 µM		> 100 µM	4.62	> 100 µM	9.18 µM		2.91	20.4 µM	2100	1460	304	4000	3.51 µM	61.5 µM	1700	5020	2470		
COC(=O)Cc1c([C@@]2(C)CCCC(C)(C)C2)ccc2c1C(=O)OC2	26.1 µM	19.4 µM	22.2 µM	31.4		32.4 µM	28.4 µM	25.6	26.1 µM											
CCCCCCCCCCCCCC[n+]1ccccc1	1.98 µM	6.25 µM	1.99 µM	2.34	2.91 µM	2.84 µM	1.46 µM	1.43	2.62 µM	459	369	334	900			960	320	1220	357	269
N#CC1C[C@@H]2CC3(CCC2CN1C(=O)c1ccccc1)OCCO3 (stereo not given in full)	> 100 µM	> 100 µM	> 100 µM	> 100	> 100 µM	> 100 µM	> 100 µM	> 100	> 100 µM											
N/C=N/S(=O)(=O)c1ccc(NC(=O)COC(=O)c2cccc3c(=O)c4ccccc4[nH]c23)cc1	> 100 µM	> 100 µM	> 100 µM	> 100		> 100 µM	> 100 µM	> 100	> 100 µM											
O=C(CCCn1c2c(sc3ccccc32)c(=O)n2nnc(-c3ccccc3)c12)NCCc1cnc[nH]1				3.39	4.33 µM		2.36 µM	11.4	2.11 µM		1840	36.8	456	6.9 µM	18.2 µM	1810	1840		45.6	719
O=[N+]([O-])c1cc(-c2nc(=S)[nH][nH]2)ccc1O	> 100 µM	> 100 µM	> 100 µM	> 100	> 100 µM	> 100 µM	> 100 µM	> 100	> 100 µM											
Oc1c(C(Nc2ccccn2)c2cccc(Oc3ccccc3)c2)ccc2cccnc12 (stereo not given)		> 100 µM	> 100 µM	1.29	13.4 µM	20 µM	30.1 µM	2.16	13.3 µM		388	477	392	0.479 µM	13 µM	310	361	544	374	1630
NC1N=Nc2ccccc21 (stereo not given)	> 100 µM	> 100 µM	> 100 µM		> 100 µM	> 100 µM	> 100 µM		> 100 µM											
N#CC(C#N)=CNCCN1CCN(C=C(C#N)C#N)CC1	> 100 µM	> 100 µM		> 100	> 100 µM	> 100 µM	> 100 µM	> 100	> 100 µM						> 100 µM					
COc1cc2c(c(O)c1Cl)C(=O)c1c(O)cc(C[C@H](C)O)cc1[C@H]2[C@H]1c2cc(C[C@H](C)O)cc(O)c2C(=O)c2c1cc(OC)c(Cl)c2O	75 µM and > 100 µM	75 µM and > 100 µM	75 µM and > 100 µM		75 µM and > 100 µM	75 µM and > 100 µM	75 µM and > 100 µM		5.91 µM and 53.6 µM					2.51 µM and 14 µM	59 µM and 55.1 µM					
COc1ccc2c(c1)[n+]([O-])c(-c1cccc(Cl)c1)c(N)[n+]2[O-]		> 100 µM	> 100 µM		> 100 µM	> 100 µM	> 100 µM	39.5	> 100 µM											
O=C(NC(=Nc1ccccc1)SCSC(=Nc1ccccc1)NC(=O)c1ccco1)c1ccco1	> 100 µM	> 100 µM	> 100 µM	> 100	> 100 µM	> 100 µM	> 100 µM	> 100	78.4 µM											
CN1CC=C(c2cc(NC(=O)Nc3ccc(Oc4ccnc(NC(=O)C5CC5)c4)c(F)c3)cc(C(F)(F)F)c2)CC1	1.48 µM		0.702 µM	2.25	2.35 µM	1.8 µM	0.678 µM	1.59	2.94 µM	524	853	126	933	1.6 µM	3.87 µM	1100	260	247		166

From PubChem BioAssay (NCI)
